The numbers were not newly measured in patent publication US20240335422A1, “COMPOSITION AND METHODS OF TREATMENT USING TRANSDERMAL SUPPLEMENTATION” (Xygenyx Inc., priority 2023, published 2024), which cites them from elsewhere.

In data set [1] the test system is skin. The conditions noted are these: single penetration enhancer.
The subject of data set [2] is wide dynamic range neurons in the ventroposterolateral nucleus of the thalamus. The conditions noted are these: in vivo.
Data set [3] has as its system skin. The conditions noted are these: topical, concentrations 0.5-5%.
In data set [4] the test system is skin. The conditions noted are these: topical, in combination with silymarin and tocopherols, test studies.
Test in data set [5]: not given
This is another data set of the same source.

For data set [6] the following is noted: compared to α-tocopherol taken as 1.0.
For data set [7] the following is noted: even when dietary intake occurs in equal portions.
The conditions of data set [8]: in vivo.

For the molecule `CC(C)[C@@H]1CC[C@@H](C)C[C@H]1O` [Menthol], the “increase of transdermal drug uptake (factor)” value in the data set on skin [1] is recorded as not below 10.

As for `CCCCCc1cc(O)c2c(c1)OC(C)(C)C1CCC(C)=CC21` (stereo not drawn) [THC, Δ-9-tetrahydrocannabinol], the “analgesic power relative to morphine” value in data set [2] is recorded as “ten times more powerful than morphine”. For `C=CCCCCCCCCC(=O)N[C@@H](Cc1ccccc1)C(=O)O` [UP, Undecylenoyl phenylalanine], the “time of treatment to skin lightening effects” value with skin [3] is recorded as not below 7 days. Consider `NCCC(=O)N[C@@H](Cc1cnc[nH]1)C(=O)O` [carnosine, Carnosine], for which, in the data set with skin [4], the “reduction of age-related wrinkles” value is on record as not above 27%. For `CC12CCC(CC1)C(C)(C)O2` [eucalyptol, 1,8-epoxy-p-menthane], the “increase of transdermal drug uptake (factor)” value with skin [1] is recorded as “more than 10”. On to `C/C(=C\CO)CCC[C@H](C)CCC[C@H](C)CCCC(C)C` [phytol, Phytol], for which the solubility entry is on record as “nearly insoluble in water, but soluble in most organic solvents”. `Cc1c(C)c2c(c(C)c1O)CC[C@@](C)(CCC[C@H](C)CCC[C@H](C)CCCC(C)C)O2` [α-tocopherol]: in data set [5] (dietary supplementation, doses up to 400 IU/day), the “reduction of risk of coronary disease” value was “up to 34%”. The “reduction of risk of developing neurodegenerative diseases (Alzheimer's Syndrome or dementia)” value in data set [5] (dietary supplementation, doses up to 400 IU/day, controlled trials) was not above 24%. Further, in [5] (in combination with 10-20 mg β-carotene and 400-500 mg vitamin C, doses around 400-500 IU), the “reduction in the development of age-related cataracts” value was 23%. In addition, the “blood plasma concentration of F2-isoprostane” value in data set [5] (large doses of 1600-3200 IU/day) is “significantly lower”.

Turning to `Cc1cc(O)c(C)c2c1O[C@](C)(CCC[C@H](C)CCC[C@H](C)CCCC(C)C)CC2` [β-tocopherol], in [6], the relative biological activity is given as 0.5. On to `Cc1c(O)cc2c(c1C)O[C@](C)(CCC[C@H](C)CCC[C@H](C)CCCC(C)C)CC2` [γ-tocopherol], for which, in [6], the relative biological activity is 0.1. For the same molecule, the “concentration in vivo relative to α-tocopherol” value in data set [7] is given as “roughly 10%”. With `Cc1cc(O)cc2c1O[C@](C)(CCC[C@H](C)CCC[C@H](C)CCCC(C)C)CC2` [δ-tocopherol], the relative biological activity in [6] is on record as 0.03. On to “HGH: hormone comprising a peptide chain synthesized in the pituitary gland”, for which the biological half-life in data set [8] is 10-20 minutes.
